Measured values as given in ChEMBL document CHEMBL5260810, “Inhibition of bromodomain-containing protein 9 for the prevention of epigenetically-defined drug resistance” (Bioorg Med Chem Lett, 2017).

What was measured:
[1] = target: Histone acetyltransferase p300 (Homo sapiens, UniProt Q09472); test: Binding affinity to human partial length EP300 (A1040 to G1161 residues) expressed in bacterial expression system by BROMOscan assay
[2] = species: Homo sapiens; test: Binding affinity to GABA-gated chloride channel (unknown origin) at 10 uM by antagonist radioligand-based assay relative to control; parameters: scale not given: the % may be the effect or the level left; conditions: time 60.0 min
[3] = test system: RL; test: Cytotoxicity against human RL cells measured after 8 days; format: functional, cell-based; conditions: 192 h
[4] = Cytotoxicity against human SW527 cells measured after 8 days; format: functional, cell-based; conditions: SW527, 192 h
[5] = Cytotoxicity against human HCC4011 cells measured after 8 days; format: functional, cell-based; conditions: HCC4011, 192 h
[6] = test system: U-937; test: Cytotoxicity against human U-937 cells measured after 8 days; format: functional, cell-based; conditions: U-937, 192 h
[7] = target: T1, Bromodomain-containing protein 1 (Homo sapiens, UniProt O95696); test: Binding affinity to human partial length BRD1 (E556 to A688 residues) expressed in bacterial expression system by BROMOscan assay
T1 sequence (O95696 whole entry): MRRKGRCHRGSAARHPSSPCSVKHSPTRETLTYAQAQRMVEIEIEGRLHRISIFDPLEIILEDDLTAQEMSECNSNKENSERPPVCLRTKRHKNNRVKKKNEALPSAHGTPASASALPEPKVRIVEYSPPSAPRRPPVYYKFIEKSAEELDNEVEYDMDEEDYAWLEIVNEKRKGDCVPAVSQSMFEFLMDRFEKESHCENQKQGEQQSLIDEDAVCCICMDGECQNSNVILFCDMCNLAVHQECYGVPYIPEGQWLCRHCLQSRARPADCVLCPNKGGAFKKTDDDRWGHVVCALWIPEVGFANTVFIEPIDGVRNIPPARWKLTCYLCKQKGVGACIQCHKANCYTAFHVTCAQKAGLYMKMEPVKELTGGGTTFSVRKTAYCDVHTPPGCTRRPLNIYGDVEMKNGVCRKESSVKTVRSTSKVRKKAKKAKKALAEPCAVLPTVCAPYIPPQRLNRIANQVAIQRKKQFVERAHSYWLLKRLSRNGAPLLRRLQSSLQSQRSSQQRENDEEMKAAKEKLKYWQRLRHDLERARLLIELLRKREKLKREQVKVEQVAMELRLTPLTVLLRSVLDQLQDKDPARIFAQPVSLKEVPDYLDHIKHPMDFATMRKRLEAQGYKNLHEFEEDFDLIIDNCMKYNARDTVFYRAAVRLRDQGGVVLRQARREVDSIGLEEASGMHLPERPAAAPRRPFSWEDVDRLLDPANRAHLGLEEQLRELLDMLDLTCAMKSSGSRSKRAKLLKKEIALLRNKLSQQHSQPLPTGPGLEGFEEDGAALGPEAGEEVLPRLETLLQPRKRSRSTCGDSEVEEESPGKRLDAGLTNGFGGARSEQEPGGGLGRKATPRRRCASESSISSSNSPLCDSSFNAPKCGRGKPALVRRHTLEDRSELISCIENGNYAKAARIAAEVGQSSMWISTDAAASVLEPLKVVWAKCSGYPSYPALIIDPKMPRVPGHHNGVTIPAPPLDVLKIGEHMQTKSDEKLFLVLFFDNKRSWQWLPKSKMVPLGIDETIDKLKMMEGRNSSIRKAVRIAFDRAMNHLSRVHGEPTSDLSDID

[8] = test system: LXF-289 cell line; test: Cytotoxicity against human LXF-289 cell line measured after 8 days; format: functional, cell-based; conditions: LXF-289, 192 h
[9] = species: Rattus norvegicus; test: Displacement of [3H]flunitrazepam from rat brain central BZD at 10 uM after 60 mins by radioligand binding assay relative to control
[10] = test system: NCI-H146; test: Cytotoxicity against human NCI-H146 cells measured after 8 days; format: functional, cell-based; conditions: NCI-H146, 192 h
[11] = Cytotoxicity against human OVCAR433 cells measured after 8 days; format: functional, cell-based; conditions: OVCAR433, 192 h
[12] = target: Misshapen-like kinase 1 (Homo sapiens) (UniProt Q8N4C8); test: Inhibition of Mink1 (unknown origin) at 1 uM relative to control
[13] = target: Insulin receptor (Homo sapiens) (UniProt P06213); test: Inhibition of InsR (unknown origin) at 1 uM relative to control
[14] = test system: MDA-MB-157; test: Cytotoxicity against human MDA-MB-157 cells measured after 8 days; format: functional, cell-based; conditions: MDA-MB-157, 192 h
[15] = target: Beta-1 adrenergic receptor (Homo sapiens) (UniProt P08588); test: Displacement of [3H](-)CGP 12177 from human beta1 adrenoceptor at 10 uM after 60 mins by scintillation counting analysis relative to control
[16] = test system: OCI-AML-5; test: Cytotoxicity against human OCI-AML5 cells measured after 8 days; format: functional, cell-based; conditions: OCI-AML-5, 192 h
[17] = test system: HCC70; test: Cytotoxicity against human HCC70 cells measured after 8 days; format: functional, cell-based; conditions: HCC70, 192 h
[18] = target: Transcription initiation factor TFIID subunit 1 (Homo sapiens, UniProt P21675); test: Binding affinity to human partial length TAF1 bromodomain 2 (D1521 to D1656 residues) expressed in bacterial expression system by BROMOscan assay
[19] = test system: IGROV-1; test: Cytotoxicity against human IGROV-1 cells measured after 8 days; format: functional, cell-based; conditions: IGROV-1, 192 h
[20] = target: Cyclin-dependent kinase 2/cyclin A (Homo sapiens) (UniProt P24941+P20248+P78396); test: Inhibition of CDK2/cyclin A (unknown origin) at 1 uM relative to control; format: protein-complex assay
[21] = test system: LCLC-97TM1; test: Cytotoxicity against human LCLC-97TM1 cells measured after 8 days; format: functional, cell-based; conditions: LCLC-97TM1, 192 h
[22] = Cytotoxicity against human KMM-1 cells measured after 8 days; format: functional, cell-based; conditions: KMM-1, 192 h
[23] = target: D(1A) dopamine receptor (Homo sapiens) (UniProt P21728); test: Displacement of [3H]-SCH 23390 from human recombinant dopamine D1 receptor at 10 uM by scintillation counting 60 mins analysis relative to control
[24] = test system: JIMT-1; test: Cytotoxicity against human JIMT-1 cells measured after 8 days; format: functional, cell-based; conditions: JIMT-1, 192 h
[25] = test system: SUD4; test: Cytotoxicity against human SU-DHL-4 cells measured after 8 days; format: functional, cell-based; conditions: SU-DHL-4, 192 h

Sequence of Misshapen-like kinase 1 (Homo sapiens) (Q8N4C8 whole entry, looked up): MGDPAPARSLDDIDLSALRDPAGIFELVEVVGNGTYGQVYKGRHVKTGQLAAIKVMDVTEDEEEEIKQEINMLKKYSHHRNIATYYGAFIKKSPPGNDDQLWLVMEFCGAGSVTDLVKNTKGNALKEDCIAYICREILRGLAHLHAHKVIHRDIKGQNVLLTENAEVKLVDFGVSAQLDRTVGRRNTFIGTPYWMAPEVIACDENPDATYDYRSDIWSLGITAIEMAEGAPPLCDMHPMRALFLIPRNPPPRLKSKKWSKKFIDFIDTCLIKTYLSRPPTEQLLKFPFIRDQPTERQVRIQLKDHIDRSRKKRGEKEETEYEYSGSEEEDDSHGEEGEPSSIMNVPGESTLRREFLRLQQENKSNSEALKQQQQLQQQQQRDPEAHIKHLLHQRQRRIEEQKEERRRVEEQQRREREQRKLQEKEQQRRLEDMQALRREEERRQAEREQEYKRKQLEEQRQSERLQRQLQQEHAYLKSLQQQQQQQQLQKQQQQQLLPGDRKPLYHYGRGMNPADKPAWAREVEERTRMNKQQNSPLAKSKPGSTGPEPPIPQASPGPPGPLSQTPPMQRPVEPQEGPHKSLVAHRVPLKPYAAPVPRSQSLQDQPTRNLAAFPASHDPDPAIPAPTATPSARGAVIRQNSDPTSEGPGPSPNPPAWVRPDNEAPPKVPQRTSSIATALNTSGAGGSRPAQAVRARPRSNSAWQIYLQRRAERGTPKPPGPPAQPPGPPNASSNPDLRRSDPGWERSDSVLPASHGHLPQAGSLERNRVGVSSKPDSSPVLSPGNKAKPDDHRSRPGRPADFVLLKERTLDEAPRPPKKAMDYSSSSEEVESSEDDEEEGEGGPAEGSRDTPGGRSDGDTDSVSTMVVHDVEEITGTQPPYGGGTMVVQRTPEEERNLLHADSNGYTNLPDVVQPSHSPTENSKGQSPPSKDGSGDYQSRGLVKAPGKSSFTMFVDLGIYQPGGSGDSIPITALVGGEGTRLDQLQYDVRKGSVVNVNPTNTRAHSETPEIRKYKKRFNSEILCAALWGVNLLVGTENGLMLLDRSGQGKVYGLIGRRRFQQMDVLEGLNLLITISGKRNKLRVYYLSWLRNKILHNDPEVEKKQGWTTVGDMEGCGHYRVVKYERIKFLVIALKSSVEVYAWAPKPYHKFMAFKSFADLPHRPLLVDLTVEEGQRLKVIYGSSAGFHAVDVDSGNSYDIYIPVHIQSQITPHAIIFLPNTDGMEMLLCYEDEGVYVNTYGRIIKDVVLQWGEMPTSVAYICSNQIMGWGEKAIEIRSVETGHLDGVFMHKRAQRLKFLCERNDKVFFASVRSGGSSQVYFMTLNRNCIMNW
Sequence of Histone acetyltransferase p300 (Q09472 whole entry, the tested form may be a part): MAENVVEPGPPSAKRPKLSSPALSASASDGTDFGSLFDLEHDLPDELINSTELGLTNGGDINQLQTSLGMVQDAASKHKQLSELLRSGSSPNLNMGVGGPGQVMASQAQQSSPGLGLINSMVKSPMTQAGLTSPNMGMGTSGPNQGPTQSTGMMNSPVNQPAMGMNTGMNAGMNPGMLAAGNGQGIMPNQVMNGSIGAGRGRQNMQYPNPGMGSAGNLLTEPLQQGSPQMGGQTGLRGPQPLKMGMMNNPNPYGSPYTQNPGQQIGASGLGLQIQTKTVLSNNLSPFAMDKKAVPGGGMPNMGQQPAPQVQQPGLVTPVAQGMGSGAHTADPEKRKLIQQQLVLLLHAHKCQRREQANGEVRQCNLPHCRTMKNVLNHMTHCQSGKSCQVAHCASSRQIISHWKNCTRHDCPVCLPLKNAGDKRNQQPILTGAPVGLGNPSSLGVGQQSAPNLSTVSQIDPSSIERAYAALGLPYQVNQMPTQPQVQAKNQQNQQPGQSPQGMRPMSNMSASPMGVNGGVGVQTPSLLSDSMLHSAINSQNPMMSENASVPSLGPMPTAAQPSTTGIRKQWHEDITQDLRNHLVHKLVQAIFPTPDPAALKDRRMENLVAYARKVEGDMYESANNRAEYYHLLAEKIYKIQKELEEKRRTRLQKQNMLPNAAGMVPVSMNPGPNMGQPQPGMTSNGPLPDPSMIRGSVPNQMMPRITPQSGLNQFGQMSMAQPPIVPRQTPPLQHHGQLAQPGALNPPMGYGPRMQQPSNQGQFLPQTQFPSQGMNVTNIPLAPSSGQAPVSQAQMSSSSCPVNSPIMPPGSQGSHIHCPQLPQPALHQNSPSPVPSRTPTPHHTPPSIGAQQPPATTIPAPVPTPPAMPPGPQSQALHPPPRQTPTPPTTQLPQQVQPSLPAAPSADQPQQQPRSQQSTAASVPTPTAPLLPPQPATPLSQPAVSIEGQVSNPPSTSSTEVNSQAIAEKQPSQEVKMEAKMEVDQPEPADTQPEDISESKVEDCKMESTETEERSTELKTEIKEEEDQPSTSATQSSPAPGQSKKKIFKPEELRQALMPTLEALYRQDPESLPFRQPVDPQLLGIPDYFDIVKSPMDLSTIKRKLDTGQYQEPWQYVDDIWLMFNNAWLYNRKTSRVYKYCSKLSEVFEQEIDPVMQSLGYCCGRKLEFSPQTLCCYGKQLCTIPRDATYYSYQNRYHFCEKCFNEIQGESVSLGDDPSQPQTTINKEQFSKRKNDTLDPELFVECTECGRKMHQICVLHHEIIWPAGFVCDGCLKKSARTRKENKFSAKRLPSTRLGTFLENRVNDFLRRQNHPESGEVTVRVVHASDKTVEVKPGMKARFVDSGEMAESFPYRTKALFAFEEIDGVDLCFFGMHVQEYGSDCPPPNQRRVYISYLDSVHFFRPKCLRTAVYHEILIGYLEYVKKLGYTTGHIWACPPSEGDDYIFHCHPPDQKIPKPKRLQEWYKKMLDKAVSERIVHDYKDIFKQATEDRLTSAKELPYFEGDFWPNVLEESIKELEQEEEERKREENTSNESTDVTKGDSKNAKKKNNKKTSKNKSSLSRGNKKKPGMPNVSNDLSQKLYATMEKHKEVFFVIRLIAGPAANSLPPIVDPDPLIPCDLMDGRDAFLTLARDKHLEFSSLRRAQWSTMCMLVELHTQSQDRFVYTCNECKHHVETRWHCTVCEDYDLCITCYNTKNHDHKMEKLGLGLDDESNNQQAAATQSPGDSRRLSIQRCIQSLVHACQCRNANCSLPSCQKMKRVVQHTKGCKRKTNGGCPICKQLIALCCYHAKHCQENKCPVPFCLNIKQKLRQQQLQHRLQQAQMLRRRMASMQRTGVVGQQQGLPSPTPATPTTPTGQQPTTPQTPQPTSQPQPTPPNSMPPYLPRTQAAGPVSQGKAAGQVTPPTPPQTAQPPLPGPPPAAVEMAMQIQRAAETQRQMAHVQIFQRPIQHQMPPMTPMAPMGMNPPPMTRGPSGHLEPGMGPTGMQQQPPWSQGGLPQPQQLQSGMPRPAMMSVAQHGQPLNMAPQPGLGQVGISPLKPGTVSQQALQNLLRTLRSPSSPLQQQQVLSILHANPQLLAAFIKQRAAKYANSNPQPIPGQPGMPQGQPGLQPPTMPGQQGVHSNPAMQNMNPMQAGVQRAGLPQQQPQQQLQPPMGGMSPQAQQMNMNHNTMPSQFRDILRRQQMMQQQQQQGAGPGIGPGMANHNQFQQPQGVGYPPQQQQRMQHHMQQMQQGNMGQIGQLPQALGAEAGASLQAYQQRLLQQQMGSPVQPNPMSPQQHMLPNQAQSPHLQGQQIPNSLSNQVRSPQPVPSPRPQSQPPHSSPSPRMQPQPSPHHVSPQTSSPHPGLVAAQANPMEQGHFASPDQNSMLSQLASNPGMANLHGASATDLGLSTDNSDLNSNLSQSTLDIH
Sequence of Insulin receptor (Homo sapiens) (P06213 28-758 limits assumed): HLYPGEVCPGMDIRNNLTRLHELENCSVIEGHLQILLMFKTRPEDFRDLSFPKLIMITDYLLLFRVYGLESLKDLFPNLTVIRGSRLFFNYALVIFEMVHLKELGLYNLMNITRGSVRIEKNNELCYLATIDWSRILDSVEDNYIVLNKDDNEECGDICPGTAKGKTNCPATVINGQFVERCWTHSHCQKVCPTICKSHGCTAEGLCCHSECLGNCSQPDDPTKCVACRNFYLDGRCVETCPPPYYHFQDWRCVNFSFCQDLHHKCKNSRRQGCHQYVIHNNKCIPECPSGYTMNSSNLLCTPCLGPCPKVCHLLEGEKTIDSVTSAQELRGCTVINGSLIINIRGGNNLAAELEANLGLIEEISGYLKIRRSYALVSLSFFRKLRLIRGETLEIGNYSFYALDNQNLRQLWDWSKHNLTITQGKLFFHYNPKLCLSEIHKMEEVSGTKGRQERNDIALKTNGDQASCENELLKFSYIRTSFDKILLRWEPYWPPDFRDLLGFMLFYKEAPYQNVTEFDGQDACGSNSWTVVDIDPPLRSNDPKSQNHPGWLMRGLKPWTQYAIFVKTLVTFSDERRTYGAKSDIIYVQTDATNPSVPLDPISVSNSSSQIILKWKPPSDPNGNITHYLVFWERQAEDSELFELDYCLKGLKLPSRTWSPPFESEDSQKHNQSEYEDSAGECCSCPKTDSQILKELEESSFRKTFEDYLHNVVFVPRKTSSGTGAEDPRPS
Sequence of Insulin receptor (Homo sapiens) (P06213 763-1382 limits assumed): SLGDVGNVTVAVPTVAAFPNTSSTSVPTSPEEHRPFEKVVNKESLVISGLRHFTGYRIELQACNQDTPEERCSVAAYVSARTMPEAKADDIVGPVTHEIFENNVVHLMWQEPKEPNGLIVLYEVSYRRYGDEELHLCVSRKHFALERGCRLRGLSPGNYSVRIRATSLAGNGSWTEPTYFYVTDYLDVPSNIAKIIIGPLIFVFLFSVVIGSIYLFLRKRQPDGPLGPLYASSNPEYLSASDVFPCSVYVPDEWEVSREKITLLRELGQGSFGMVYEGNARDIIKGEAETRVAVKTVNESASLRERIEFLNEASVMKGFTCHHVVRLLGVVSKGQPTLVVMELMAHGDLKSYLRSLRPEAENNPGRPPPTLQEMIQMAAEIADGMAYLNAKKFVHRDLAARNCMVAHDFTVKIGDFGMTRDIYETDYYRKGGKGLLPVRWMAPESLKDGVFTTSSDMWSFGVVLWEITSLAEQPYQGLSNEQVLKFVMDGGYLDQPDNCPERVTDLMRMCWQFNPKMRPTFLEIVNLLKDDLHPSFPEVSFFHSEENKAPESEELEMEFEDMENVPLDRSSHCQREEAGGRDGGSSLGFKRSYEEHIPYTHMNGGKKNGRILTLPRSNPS

Structure (SMILES)	Kd [1] [µM]	Activity [2] [%]	IC50 [3] [µM]	IC50 [4] [µM]	IC50 [5] [µM]	IC50 [6] [µM]	Kd [7] [µM]	IC50 [8] [µM]	Activity [9] [%]	IC50 [10] [µM]	IC50 [11] [µM]	inhibition [12] [%]	inhibition [13] [%]	IC50 [14] [µM]	Activity [15] [%]	IC50 [16] [µM]	IC50 [17] [µM]	Kd [18] [µM]	IC50 [19] [µM]	inhibition [20] [%]	also measured
C/C=C/Cn1cc(-c2ccc(C(C)(C)O)cc2OC)c2cc[nH]c2c1=O	4.5	15	14.8	20	20	20	> 10	20	-21	20	20	18	4.5	20	11	20	20	> 10	20	1	IC50 [21]: 20 µM; IC50 [22]: 20 µM; Activity [23]: 0%; IC50 [24]: 20 µM; IC50 [25]: 8.59 µM
C/C=C/Cn1cc(-c2ccc(C(=O)N3CCOCC3)cc2)c2cc[nH]c2c1=O	> 10	4	16.6	20	20	20	> 10	20	13	20	20	1.5	1.1	20	4	20	20	0.31	20	1.6	IC50 [21]: 20 µM; IC50 [22]: 20 µM; Activity [23]: 6%; IC50 [24]: 20 µM; IC50 [25]: 20 µM
C/C=C/Cn1cc(-c2cc(OC)c(C(C)(C)O)cc2OC)c2cc(C)[nH]c2c1=O	> 10						> 10											> 10			
C/C=C/Cn1cc(-c2cc(OC)c(C(=O)N3CCOCC3)cc2OC)c2cc(C)[nH]c2c1=O	> 10	14	2	2	2	2	> 10	2	86	2	2	8	3	2	12	2	2	> 10	2	0	IC50 [21]: 2 µM; IC50 [22]: 2 µM; Activity [23]: 4%; IC50 [24]: 2 µM; IC50 [25]: 2 µM
